From US11185554B2 (priority 2016, dated 2021)

Tests used:
influenza = conditions: mouse, in vivo; cited from earlier work
free radicals (ROS/RNS) = tested on: free radicals (ROS/RNS); parameters: species or system C57BL/6J mice; conditions: mouse, in vivo
EBOV = tested on: EBOV; parameters: species or system C57BL/6J mice; conditions: mouse, in vivo
[1] = tested on: neutrophils and T cells in the peripheral blood; parameters: species or system C57BL/6J mice; conditions: mouse, in vivo
[2] = tested on: cytokines, chemokines in the peripheral blood; parameters: species or system C57BL/6J mice; conditions: mouse, in vivo
ebola virus = tested on: ebola virus; parameters: species or system C57BL/6J mice; conditions: mouse, in vivo

Compound: CCCCCC/C=C\CCCCCCCCCC(=O)N[C@H]1[C@H](OC[C@H]2O[C@H](OP(=O)(O)O)[C@H](NC(=O)CC(=O)CCCCCCCCCCC)[C@@H](OCCCCCCCCCC)[C@@H]2O)O[C@H](COC)[C@@H](OP(=O)(O)O)[C@@H]1OCC[C@@H](CCCCCCC)OC [eritoran, α-D-Glucopyranose, 3-O-decyl-2-deoxy-6-O-[2-deoxy-3-O-[(3R)-3-methoxydecyl)-6-O-methyl-2-[[(-11Z)-1-oxo-11-octadecenyl)amino]-4-O-phosphono-3-D-glucopyranosyl]-2-[(1,3-dioxotetradecyl)amino]-1-(dihydrogen phosphate)]
- protection from lethal influenza challenge (influenza): protected
- reduction of free radicals (ROS/RNS) (free radicals (ROS/RNS)): 23%
- reduction of viremia versus placebo (EBOV): two-logs
- viremia (quantitative RT-PCR) (EBOV): 10^5 genome equivalents per mL
- B-cells, NK-cells and monocytes populations [1]: no effect
- absolute count of CD3+, CD3+CD4+ and CD3+CD8+ T cells [1]: further reduced
- expansion of the neutrophil population (absolute counts) [1]: blocked expansion
- granulocytes, absolute count [1]: 2,786 cells/μl
- increase of percentages of CD4+ T cells positive for IL-4 [1]: 3.8 fold
- increase of percentages of CD4 T cells positive for CD69 [1]: 2.8 fold
- levels of IFNγ-secreting CD4+ T cells [1]: dramatically reduced
- levels of IFNγ-secreting CD8+ T cells [1]: dramatically reduced
- levels of IL-17A-secreting CD4+ T cells [1]: dramatically reduced
- percentages of CD11b+Ly6G/Ly6C+ neutrophils in gated granulocytes, placebo versus eritoran [1]: no difference
- percentages of neutrophils expressing activation marker CD64 [1]: significantly increased
- percentages of neutrophils expressing activation marker CD69 [1]: significantly increased
- ratio of CD11b+Ly6G/Ly6C+ neutrophils to CD3+ T-lymphocytes [1]: 11.05
- ratio of CD11b+Ly6G/Ly6C+ neutrophils to total lymphocytes [1]: 2.15
- decrease of serum levels of leukemia inhibitory factor (LIF) [2]: 10.3 fold
- increase in the production of KC [2]: 10.0 fold
- increase of levels of G-CSF [2]: 7.0 fold
- increase of levels of M-CSF [2]: 58%
- reduction of serum IL-7 levels [2]: 41%
- serum IL-6 level [2]: reduced
- serum IL-9 level [2]: reduced
- serum IL-10 level [2]: reduced
- serum IL-13 level [2]: reduced
- serum MIG level [2]: significantly decreased
- serum MIP-1α level [2]: significantly decreased
- serum MIP-1β level [2]: significantly decreased
- serum MIP-2 level [2]: significantly decreased
- serum RANTES level [2]: significantly decreased
- serum TNFα level [2]: reduced
- serum IP-10 level ([2]; ip): significantly decreased
- protection against ebola virus challenge (ebola virus): does not protect
